Measurements: paper PMC11943016, “TBG096 Ameliorates Memory Deficiency in AD Mouse Model via Promoting Neurogenesis and Regulation of Hsc70/HK2/PKM2/LAMP2A Signaling Pathway” (International Journal of Molecular Sciences, 2025)

Assays:
[1] = cited from earlier work
HFD-induced AD mice [2] = assay: Immunofluorescence staining of brain tissue of HFD-induced AD mice; format: in vivo
Description: (§1) In experiments with the HFD-induced AD mouse model, a total of 60 Institute of Cancer Research (ICR) male mice aged 4 weeks from Zhejiang Academy of Medical Sciences (Hangzhou, China) were used for animal experiments (permit number: ZJU20230121). The animals were provided free access to a chow diet and water. […] The HFD and normal diet were alternated every two days to maintain freshness. Weekly measurements were taken for water intake, food intake, and body weight. In the eighteenth week, the mice underwent Y-maze and NOR tests. The Morris water maze test was conducted during the nineteenth week. After confirming the successful establishment of the AD model characterized by cognitive impairment, oral administration of treatments commenced. […] Each group had 10 mice.
At the end of animal experiments, three mice in each group were taken for heart perfusion with cold PBS and 4% paraformaldehyde. After that, the brains of mice were fixed with 4% paraformaldehyde for 24 h and gradually dehydrated with 15% and 30% sucrose solutions for 48 h, respectively. The fixed and embedded brain sample was placed in a cryostat and cut into 20 µm thick slices with a cryostat (Thermo Fisher, Waltham, MA, USA), and brain slices in the hippocampus and cortex were collected. Finally, the brain slices were placed in antifreeze (glycerol/ethylene/PBS = 3:3:4) and kept in a refrigerator at −30 °C until immunostaining. The brain slices were fixed on a glass slide and hydrated with PBS for 5 min. Then, blocking buffer was added to the brain slices and incubated at room temperature for 1 h. Brain slices were washed twice with PBS and incubated with anti-NeuN, anti-BrdU, anti-Iba1, anti-GFAP, anti-INOS, anti-APP, or anti-p-Tau at 4 °C for 24 h, respectively. Subsequently, the brain slices were incubated with secondary antibody (goat anti-rabbit IgG H&L (Alexa Fluor® 488) or rabbit anti-mouse IgG (Cy3 conjugate)) at room temperature for 2 h after washing with PBS three times. Finally, a cover glass was used to lightly cover the slices stained with DAPI. […] Biomarker proteins in the cerebral cortex and hippocampus were digitized by Image J software (National Institutes of Health, Bethesda, MD, USA).

gut microbiota = assay: Gut microbiota analysis in HFD-induced AD mice; format: in vivo; settings: Met 140 mg/kg
Description: as §1

HFD-induced AD mice [3] = assay: Behavioral tests (Y-maze, NOR, MWM) in HFD-induced AD mice; format: in vivo
Description: as §1
The Y-maze test is used to evaluate working memory, and the process was referenced in another report. In brief, the Y-maze consists of three black plastic arms (A, B, and C) with the same length (30 cm), width (10 cm), height (15 cm), and 120° relative to adjacent arms. Each mouse is placed facing the wall of arm A and allowed to explore the maze freely for 5 min. The behavior of mice is recorded with a video recorder, and the data are stored in ANY-MAZE software version 6.35 (Stoelting, Chicago, IL, USA). The total number of entries made by the mice into each arm—considered as either whole or half-body entries—is recorded. An alternation is defined as a mouse moving through all three arms without returning to the initial arm on the third visit. Alternation: number of alternations/(number of arm entries − 2) × 100%.
The NOR test is utilized to assess the working memory capabilities of mice. The NOR apparatus consists of an open, black plastic box, two identical objects, and one novel object. The activity of the mice within the open field is captured and recorded using a video recorder, with data subsequently stored in ANY-MAZE software. The test is conducted over a span of two days, incorporating habituation, training, and testing stages. During the habituation phase, the mice are placed in the box devoid of any objects, allowing them to explore freely for a duration of five min. Following a 24 h interval, the NOR test is administered, which consists of both the training and testing phases. In the training phase, each mouse is positioned in the central area of the box, where two identical objects are placed equidistant from the mouse. Each training session lasts for five minutes. After a one-hour break, one of the identical objects is replaced with a new, distinct object, and the exploration duration for each mouse is recorded. Exploration is defined by the time a mouse spends touching or sniffing an object. The exploration times during both the training and testing phases are documented via video recording, and the data are organized within ANY-MAZE software. The object recognition index was defined as follows: (time spent on the new object)/(time spent on the old object + time spent on the new object) × 100%. The data are calculated by ANY-MAZE software.
The MWM test is used to measure spatial memory and long-term memory. The whole MWM equipment includes a circular water tank (diameter 1.5 m, depth 50 cm) with warm water (22 ± 1 °C) 35 cm deep, a platform (diameter 14 cm, immersed 1 cm in water), a camera, and a computer for data analysis. The MWM test is conducted over five 5 days: 4 days for training and 1 day for testing. The pool is divided into four quadrants, and at least three quadrants are tested at a time. In the training stage, the mouse is placed on the wall of one of the four quadrants and allowed to swim and find the platform hidden underwater within 120 s. If the mouse cannot find the platform, the experimenter will guide it and let it stay on the platform for 10 s. The experiment lasts for 4 days. On the fifth day of the test phase, the platform is removed, and each mouse is placed in a similar starting position and allowed to move freely for 90 s. […]

PC12 cells [4] = assay: MTT assay, cytotoxicity in PC12 cells; format: cell-based; settings: 10 µM
Procedure: PC12 cells were firstly inoculated into a 24-well plate and cultured for 24 h. Following this, samples at different doses were added and cultured for 24 h. Subsequently, the 0.5 mL serum-free medium containing MTT (0.2 mg/mL) of each well was used to replace the original medium and incubated for 2 h. After removing the solution, the purple crystal was dissolved in 200 μL of DMSO, and the absorbance was measured at 570 nm. The cell survival rate for each group was calculated based on the control group.

PC12 cells [5] = assay: NGF-mimic activity: neurite outgrowth in PC12 cells; format: cell-based; settings: 0.3, 1, and 3 µM, 48 h
Procedure: The neurogenic activity of samples was evaluated according to the methods described in our previous study. Briefly, approximately 5 × 10^4 cells were seeded in each well of a 24-well microplate and were cultured under a humidified atmosphere with 5% CO2 at 37 °C for 24 h. Then, the medium in each well was replaced with 1 mL of serum-free DMEM containing 40 ng/mL NGF as a positive control, 0.5% DMSO as a negative control, and the test sample after 24 h, respectively. About 100–200 cells of each well were counted from a randomly selected area and repeated thrice after 48 h. A cell-bearing neurite outgrowth longer than the diameter of the cell body was identified as a positive cell. The activity was presented as the percentage of positive cells in the selected area.
(§2) In the inhibitor experiment of NGF-mimic activity, approximately 5 × 10^4 PC12 cells were seeded into each well of a 24-well plate and incubated for 24 h. After that, the medium in each well was replaced with 500 μL of serum-free DMEM or the serum-free DMEM containing VER155008, the inhibitor of Hsc70 protein, incubated in a CO2 incubator for 30 min. Subsequently, 500 μL of serum-free DMEM containing different samples was added and cultured, respectively. The PC12 cells with neurite outgrowth were recorded after 48 h. For the Western blot analysis, the experiment included five groups, namely the control (C) group, the NGF (40 ng/mL) group, the TBG096 (1 µM) group, the VER155008 (3 µM) group, and the VER155008 (3 µM) + TBG096 (1 µM) group. Afterwards, approximately 2 × 10^6 cells per dish were seeded into ten 6 cm Petri dishes with 5 mL of DMEM medium and incubated for 24 h. After giving different treatments with samples, the cells continued to culture for 4 h. Protein extraction was conducted to prepare for the subsequent Western blot analysis.

PC12 cells [6] = assay: EdU cell proliferation in PC12 cells (inhibitor experiment); format: cell-based; settings: VER155008 3 µM, NH4Cl 250 µM
Procedure: In the inhibitor experiment of EdU cell proliferation activity, PC12 cells were seeded into each well of a 24-well plate as above for 24 h. Then, the medium in each well was replaced with 500 μL of serum-free […] containing VER155008 (inhibitor of Hsc70, 3 µM), or NH4Cl (inhibitor of lysosome, 250 µM) for 30 min according to the literature, and 500 μL of serum-free DMEM containing different samples was added and cultured for 24 h, respectively. After that, PC12 cells were treated with EdU for 2 h according to the operation steps of the BeyoClick™ EdU-488 cell proliferation detection kit (#C0071S, Beyotime Biotechnology, Shanghai, China). After cell labeling, the supernatant was removed. Then, PC12 cells were fixed, washed, and blocked, and the click reaction solution was added at room temperature for 30 min. After that, DAPI staining was performed for 10 min. Finally, PC12 cells were detected by fluorescence microscope (Olympus IX53, Tokyo, Japan).

[7] = test system: Hsc70, LAMP2A, APP, PKM2, and HK2 proteins; assay: Western blot of CMA proteins in PC12 cells (inhibitor experiment); format: cell-based; settings: TBG096 1 µM, VER155008 3 µM, 4 h, vs control
Procedure: as §2
Approximately 50 mg of cerebral cortex from brain tissues was homogenized in RIPA lysis buffer containing 1% protease inhibitor and 1% phosphatase inhibitor. Then, the sample was centrifuged at 12,000 rpm at 4 °C for 10 min, and the supernatant was transferred to a new tube. Protein concentrations were determined using the BCA kit, and 30 µg of protein from each sample was denatured by heating in water at 100 °C for 10 min. Subsequently, approximately 30 µg of protein from each sample was loaded into each well. After conducting gel electrophoresis at 80 V for 15 min and then at 120 V for 60 min, the proteins were transferred to the polyvinylidene fluoride (PVDF) membrane for 90 min. Then, the PVDF membrane was blocked with 5% skimmed milk at room temperature for 60 min. The membrane was incubated with a diluted primary antibody at 4 °C overnight. After washing the membrane three times with TBST buffer (1× TBS buffer containing 0.05% (v/v) tween 20), it was incubated with the secondary antibody for 1 h at room temperature. Finally, the strip was developed using chemiluminescence ECL reagent, and the blot density was quantified with ImageJ (National Institutes of Health, Bethesda, MD, USA).

NGF: Nerve growth factor, the first recognized neurotrophic factor; positive control in PC12 assay
BBB penetration [1]: cannot penetrate the BBB

CN(C)C(=N)N=C(N)N [Met, Metformin, reference compound]
APP and phosphorylation Tau protein in the hippocampus (HFD-induced AD mice [2]; immunofluorescence): reduction | number of mature neurons (NeuN) in the cerebral cortex (HFD-induced AD mice [2]; vs HFD-only group): increased numbers of mature neurons | abundance of Firmicutes (decreased by HFD) and Bacteroidota (increased by HFD) (gut microbiota; TBG096 20 mg/kg): reversed | abundance of Ligilactobacillus (gut microbiota; TBG096 5 and 20 mg/kg): improved | number of arm entries, Y-maze test (HFD-induced AD mice [3]; TBG096 0.1, 5, 20 mg/kg, Met 140 mg/kg, 54 days): No significant differences | escape latency, MWM training phase (HFD-induced AD mice [3]; fourth day, Met 140 mg/kg and all doses of TBG096): markedly reduced | number of platform crossings, MWM test phase (HFD-induced AD mice [3]; vs HFD-only group): increased significantly

O=C(SCCCCCCCCSCCCC(F)(F)F)c1cccc(O)c1O [compound 4]
toxicity in PC12 cells (MTT) (PC12 cells [4]): some level of toxicity | percentage of PC12 cells exhibiting neurite growth (PC12 cells [5]): superior activity

Cl.N [NH4Cl]
effect of inhibitor on the EdU cell proliferation activity of TBG096 (PC12 cells [6]): reverse the activity

N#Cc1ccc(COC[C@H]2O[C@@H](n3c(NCc4ccc(Cl)c(Cl)c4)nc4c(N)ncnc43)[C@H](O)[C@@H]2O)cc1 [VER155008, reference compound]
APP protein expression [7]: significantly increased | Hsc70 protein level [7]: significantly decreased | LAMP2A protein level [7]: significantly increased | PKM2 protein expression [7]: significantly increased | effect of inhibitor on the EdU cell proliferation activity of TBG096 (PC12 cells [6]): reverse the activity
